In patent publication US12297218B2, “Complex comprising a PSMA-targeting compound linked to a lead or thorium radionuclide” (Sciencons AS, priority 2017, dated 2025):

Key:
[1] = test system: C4-2 PSMA-positive xenografts; test: Biodistribution of radiolabelled ligands after intravenous injection in nude mice with C4-2 xenografts; details: for Tumor-to-kidney ratio / Kidney uptake / Tumor uptake: average; for Tumor-to-kidney ratio: 1-hour point after administration; for Kidney uptake / Tumor uptake: 4 hours after injection
Description: Each group usually consisted of three mice. […] Approximately 16 kBq of ^224Ra/^212Pb was injected in each animal, i.e., approximately 0.2 nmol of ligand per mouse. Animals were given anaesthesia and sacrificed by cervical dislocation followed by dissection and harvesting of tissue-, blood- and urine samples. The samples were weighed and counted on a gamma counter.
Three mice in each group. […] The molar concentration was the same for both products, i.e., 12.5 nmol per MBq. Approximately 16 kBq of ^224Ra/^212Pb was injected in each animal, i.e., approximately 0.2 nmol of ligand per mouse. Animals were given anaesthesia and sacrificed by cervical dislocation followed by dissection and harvesting of tissue-, blood- and urine samples. The samples were weighed and counted on a gamma counter.
Methods: Tumor and kidney uptake of ^212Pb-labeled p-SCN-Bn-TCMC-PSMA ligand 1 and ^177Lu-labeled PSMA-617 was compared at 1 hours and 4 hours after administration of the products by intravenous injection into nude mice with C4-2 xenografts as described in Example 9.

[2] = test system: C4-2 PSMA positive human prostate cells; test: Comparative therapy experiment in nude mice with C4-2 xenografts; type: in vivo; details: for Median survival: 52 MBq ^177Lu-PSMA-617 or 320 kBq ^212Pb-p-SCN-Bn-TCMC-PSMA ligand 1
Description: Male nude mice were inoculated in the flanks with C4-2 PSMA positive human prostate cells and 2 weeks later when tumors were 5-7 mm in diameters. Groups of 8 animals each received saline, 52 MBq of ^177Lu-PSMA-617 or 320 kBq of ^212Pb-p-SCN-Bn-TCMC-PSMA ligand 1. Animals were sacrificed when tumor size reached 20 mm due to animal welfare requirements. […] For ^212Pb the effective half-life was assumed to be 10.6 h, 10% of injected dose per gram decays in tumor and 100% of radiation in a tumor is absorbed in the tumor, 100% retention of ^212Pb and daughters in the tumors and 8 MeV radiation energy per decay. The tumor dosimetry for the injected activities gave on average 35.9 Gy to tumors for ^177Lu-PSMA-617 and 2.06 Gy to tumors for ^212Pb-p-SCN-Bn-TCMC-PSMA ligand 1 groups respectively.

PSMA-positive xenografts = test: Biodistribution of single targeting solution (purified ^212Pb-p-SCN-Bn-TCMC-PSMA ligand 1) in mice with PSMA-positive xenografts; type: in vivo
Description: Each group usually consisted of three mice. The ^212Pb labelling was above 92% for the products.
Using a ^212Pb/^224Ra solution for reaction with p-SCN-Bn-TCMC-PSMA ligand 1 as described, purified ^212Pb-p-SCN-Bn-TCMC-PSMA ligand 1 was purified using a Sephadex G-10 gel filtration column and about 30 kBq and 300 ng of the purified radioligand product was injected per animal. […] The tumor-to-tissue ratios (Table 4) indicates suitability for radioligand targeting with ^212Pb.

PC3 PIP model = details: typical, mouse xenografts, other researchers; cited from earlier work
C4-2 cells = test: Prostate cancer cell binding of ligands labeled with ^212Pb; set-up: species or system human
Description: the cell binding fractions measured by adding about 1 ng of radioligand to 0.2 ml of C4-2 cells (5×10^7 cells per ml) in a 5 ml test tube and incubate for 1 h before measuring applied activity, wash cells 3 times with 0.5 ml 0.5% bovine serum albumin in DPBS and thereafter recount the washed cell pellet. […] Nonspecific binding was measured by blocking the cells with excess 10 μg/ml of unlabelled ligand before adding radioligand.

SMILES: NC(=O)CN1CCN(CC(N)=O)CCN(CC(N)=O)C(Cc2ccc(NC(=S)NCC3CCC(C(=O)NC(Cc4ccc5ccccc5c4)C(=O)NCCCCC(NC(=O)NC(CCC(=O)O)C(=O)O)C(=O)O)CC3)cc2)CN(CC(N)=O)CC1.[212Pb+2] (stereo not shown) [^212Pb-p-SCN-Bn-TCMC-PSMA ligand 1]
- ^212Pb-p-SCN-Bn-TCMC-PSMA ligand 1 to PSMA-617 ratio, blood ([1]; 4 h after injection): 1.21
- ^212Pb-p-SCN-Bn-TCMC-PSMA ligand 1 to PSMA-617 ratio, kidneys ([1]; 4 h after injection): 0.20
- ^212Pb-p-SCN-Bn-TCMC-PSMA ligand 1 to PSMA-617 ratio, liver ([1]; 4 h after injection): 2.67
- ^212Pb-p-SCN-Bn-TCMC-PSMA ligand 1 to PSMA-617 ratio, spleen ([1]; 4 h after injection): 0.71
- ^212Pb-p-SCN-Bn-TCMC-PSMA ligand 1 to PSMA-617 ratio, tumor ([1]; 4 h after injection, ^224Ra/^212Pb solution): 1.35
- Tumor-to-kidney ratio [1]: 0.40
- Kidney uptake [1]: 8.1 % ID/g
- Tumor uptake [1]: 13.9 % ID/g
- Median survival [2]: > 30 days
- Radiobiological effectiveness (RBE) vs ^177Lu-PSMA-617 ([2]; C4-2 xenografts): at least 17
- Survival at day 30 after treatment ([2]; groups of 8): 75%
- Tumor to tissue ratio, Tumor/Femur (PSMA-positive xenografts; 1 h): 30.4
- Tumor to tissue ratio, Tumor/blood (PSMA-positive xenografts; 1 h): 14.9
- Tumor to tissue ratio, Tumor/kidneys (PSMA-positive xenografts; 1 h): 0.41
- Tumor to tissue ratio, Tumor/muscle (PSMA-positive xenografts; 1 h): 42.6
- Tumor to tissue ratio, Tumor/Femur (PSMA-positive xenografts; 2 h): 39.7
- Tumor to tissue ratio, Tumor/blood (PSMA-positive xenografts; 2 h): 29.4
- Tumor to tissue ratio, Tumor/kidneys (PSMA-positive xenografts; 2 h): 0.62
- Tumor to tissue ratio, Tumor/muscle (PSMA-positive xenografts; 2 h): 72.1
- Tumor to tissue ratio, Tumor/Femur (PSMA-positive xenografts; 4 h): 24.8
- Tumor to tissue ratio, Tumor/blood (PSMA-positive xenografts; 4 h): 30.7
- Tumor to tissue ratio, Tumor/kidneys (PSMA-positive xenografts; 4 h): 1.54
- Tumor to tissue ratio, Tumor/muscle (PSMA-positive xenografts; 4 h): 61.5
- Tumor to tissue ratio, Tumor/Femur (PSMA-positive xenografts; 8 h): 19.8
- Tumor to tissue ratio, Tumor/blood (PSMA-positive xenografts; 8 h): 112.7
- Tumor to tissue ratio, Tumor/kidneys (PSMA-positive xenografts; 8 h): 3.60
- Tumor to tissue ratio, Tumor/muscle (PSMA-positive xenografts; 8 h): 366.2
- Biodistribution, Bladder (PSMA-positive xenografts; Bladder, 8 h): 0.26 % ID/g
- Biodistribution, Blood (PSMA-positive xenografts; 2 h): 0.54 % ID/g
- Biodistribution, Blood (PSMA-positive xenografts; 4 h): 0.46 % ID/g
- Biodistribution, Blood (PSMA-positive xenografts; 8 h): 0.13 % ID/g
- Biodistribution, Brain (PSMA-positive xenografts; 1 h): 0.61 % ID/g
- Biodistribution, Brain (PSMA-positive xenografts; 2 h): 0.04 % ID/g
- Biodistribution, Brain (PSMA-positive xenografts; 4 h): 0.07 % ID/g
- Biodistribution, Brain (PSMA-positive xenografts; 8 h): 0.02 % ID/g
- Biodistribution, Femur (PSMA-positive xenografts; 1 h): 0.87 % ID/g
- Biodistribution, Femur (PSMA-positive xenografts; 2 h): 0.40 % ID/g
- Biodistribution, Femur (PSMA-positive xenografts; 4 h): 0.57 % ID/g
- Biodistribution, Femur (PSMA-positive xenografts; 8 h): 0.74 % ID/g
- Biodistribution, Heart (PSMA-positive xenografts; 1 h): 0.78 % ID/g
- Biodistribution, Heart (PSMA-positive xenografts; 2 h): 0.20 % ID/g
- Biodistribution, Heart (PSMA-positive xenografts; 4 h): 0.52 % ID/g
- Biodistribution, Heart (PSMA-positive xenografts; 8 h): 0.09 % ID/g
- Biodistribution, Large intestine (PSMA-positive xenografts; 1 h): 0.25 % ID/g
- Biodistribution, Large intestine (PSMA-positive xenografts; 2 h): 0.39 % ID/g
- Biodistribution, Large intestine (PSMA-positive xenografts; 4 h): 0.18 % ID/g
- Biodistribution, Large intestine (PSMA-positive xenografts; 8 h): 0.17 % ID/g
- Biodistribution, Lungs (PSMA-positive xenografts; 2 h): 0.40 % ID/g
- Biodistribution, Lungs (PSMA-positive xenografts; 4 h): 0.75 % ID/g
- Biodistribution, Lungs (PSMA-positive xenografts; 8 h): 0.17 % ID/g
- Biodistribution, Muscle (PSMA-positive xenografts; 1 h): 0.62 % ID/g
- Biodistribution, Muscle (PSMA-positive xenografts; 2 h): 0.22 % ID/g
- Biodistribution, Muscle (PSMA-positive xenografts; 4 h): 0.23 % ID/g
- Biodistribution, Muscle (PSMA-positive xenografts; 8 h): 0.04 % ID/g
- Biodistribution, Prostate (PSMA-positive xenografts; Prostate, 2 h): 3.80 % ID/g
- Biodistribution, Salivary gland (PSMA-positive xenografts; 1 h): 0.72 % ID/g
- Biodistribution, Salivary gland (PSMA-positive xenografts; 2 h): 0.32 % ID/g
- Biodistribution, Salivary gland (PSMA-positive xenografts; 4 h): 0.34 % ID/g
- Biodistribution, Salivary gland (PSMA-positive xenografts; 8 h): 0.15 % ID/g
- Biodistribution, Skin (PSMA-positive xenografts; 1 h): 1.70 % ID/g
- Biodistribution, Skin (PSMA-positive xenografts; 2 h): 0.47 % ID/g
- Biodistribution, Skin (PSMA-positive xenografts; 4 h): 0.42 % ID/g
- Biodistribution, Skin (PSMA-positive xenografts; 8 h): 0.23 % ID/g
- Biodistribution, Skull (PSMA-positive xenografts; 1 h): 0.77 % ID/g
- Biodistribution, Skull (PSMA-positive xenografts; 2 h): 0.38 % ID/g
- Biodistribution, Skull (PSMA-positive xenografts; 4 h): 0.37 % ID/g
- Biodistribution, Skull (PSMA-positive xenografts; 8 h): 0.63 % ID/g
- Biodistribution, Small intestine (PSMA-positive xenografts; 1 h): 0.34 % ID/g
- Biodistribution, Small intestine (PSMA-positive xenografts; 2 h): 0.23 % ID/g
- Biodistribution, Small intestine (PSMA-positive xenografts; 4 h): 0.30 % ID/g
- Biodistribution, Small intestine (PSMA-positive xenografts; 8 h): 0.08 % ID/g
- Biodistribution, Spleen (PSMA-positive xenografts; 2 h): 0.44 % ID/g
- Biodistribution, Spleen (PSMA-positive xenografts; 4 h): 0.54 % ID/g
- Biodistribution, Spleen (PSMA-positive xenografts; 8 h): 0.36 % ID/g
- Biodistribution, Stomach (PSMA-positive xenografts; 1 h): 0.16 % ID/g
- Biodistribution, Stomach (PSMA-positive xenografts; 2 h): 0.22 % ID/g
- Biodistribution, Stomach (PSMA-positive xenografts; 4 h): 0.10 % ID/g
- Biodistribution, Stomach (PSMA-positive xenografts; 8 h): 0.09 % ID/g
- Biodistribution, Testes (PSMA-positive xenografts; 2 h): 0.56 % ID/g
- Biodistribution, Testes (PSMA-positive xenografts; 4 h): 0.38 % ID/g
- Biodistribution, Testes (PSMA-positive xenografts; 8 h): 0.12 % ID/g

SMILES: O=C([O-])CN1CCN(CC(=O)[O-])CCN(CC(=O)NCC2CCC(C(=O)N[C@@H](Cc3ccc4ccccc4c3)C(=O)NCCCC[C@H](NC(=O)N[C@@H](CCC(=O)O)C(=O)O)C(=O)O)CC2)CCN(CC(=O)[O-])CC1.[177Lu+3] (stereo partly shown) [^177Lu-PSMA-617, reference compound]
- Tumor-to-kidney ratio [1]: 0.17
- Kidney uptake [1]: 17.4 % ID/g
- Tumor uptake [1]: 13.6 % ID/g
- PSMA-ligand uptake in the xenograft model used ([1]; typical, mouse xenografts): 10-15 % ID/g
- Median survival [2]: 20 days
- PSMA-ligand uptake in PC3 PIP model (PC3 PIP model): 30-40 % ID/g

SMILES: NC(=O)CN1CCN(CC(N)=O)CCN(CC(N)=O)C(Cc2ccc(NC(=S)NC[C@H]3CC[C@H](C(=O)N[C@@H](Cc4ccc5ccccc5c4)C(=O)NCCCC[C@H](NC(=O)N[C@@H](CCC(=O)O)C(=O)O)C(=O)O)CC3)cc2)CN(CC(N)=O)CC1 (stereo partly drawn) [p-SCN-Bn-TCMC-PSMA ligand 1, (((1S)-1-carboxy-5-((2S)-3-(naphthalen-2-yl)-2-((1r,4S)-4-((3-(4-((1,4,7,10-tetrakis(2-amino-2-oxoethyl)-1,4,7,10-tetraazacyclododecan-2-yl)methyl)phenyl)thioureido)methyl)cyclohexane-1-carboxamido)propanamido)pentyl)carbamoyl)-L-glutamic acid; trifloroacetic acid (1:4)]
- Difference in cell-binding between radiolabelled p-SCN-Bn-TCMC-PSMA ligand 1 and PSMA-617 (C4-2 cells): No significant difference
